Measured values published in ChEMBL document CHEMBL3044762, “Design, Synthesis and Evaluation of Trisubstituted Thiazoles Targeting Plasmodium Falciparum Cysteine Proteases” (Med Chem Res, 2005).
pEC50, pIC50: −log10 of the molar value. Values belong to the compound of their own block, whether it stands above or below them.

What was measured:
Plasmodium falciparum [1] = experiment: Antimalarial activity against Plasmodium falciparum W2 after 72 hr by LDH assay; assay type: functional, organism-based; conditions: W2, 72 h
Plasmodium falciparum [2] = experiment: Antimalarial activity against Plasmodium falciparum D6 after 72 hr by LDH assay; assay type: functional, organism-based; conditions: D6, 72 h
Falcipain-3 = Falcipain-3 (Plasmodium falciparum, UniProt Q8IIL0); experiment: Inhibition of recombinant Plasmodium falciparum falcipain-3 using Z-Leu-Arg-AMC as substrate compound treated for 30 min before substrate addition by fluorescence assay
Falcipain-3, sequence (Q8IIL0 whole entry, looked up): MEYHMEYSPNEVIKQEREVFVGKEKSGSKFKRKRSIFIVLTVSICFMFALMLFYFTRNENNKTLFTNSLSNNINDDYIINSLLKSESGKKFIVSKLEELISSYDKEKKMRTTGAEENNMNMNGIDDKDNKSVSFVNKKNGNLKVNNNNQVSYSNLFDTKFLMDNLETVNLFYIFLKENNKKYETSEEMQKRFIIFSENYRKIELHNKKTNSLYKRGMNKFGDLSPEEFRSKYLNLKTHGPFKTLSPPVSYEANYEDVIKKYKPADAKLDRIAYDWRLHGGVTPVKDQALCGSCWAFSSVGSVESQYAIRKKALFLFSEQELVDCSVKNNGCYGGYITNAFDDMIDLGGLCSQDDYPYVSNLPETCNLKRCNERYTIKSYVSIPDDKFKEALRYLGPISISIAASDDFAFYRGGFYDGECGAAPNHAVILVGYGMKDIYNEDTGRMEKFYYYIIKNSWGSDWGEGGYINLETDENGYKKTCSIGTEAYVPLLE

Falcipain 2 = molecular target: T1, Falcipain 2 (Plasmodium falciparum, UniProt Q9N6S8); experiment: Inhibition of recombinant Plasmodium falciparum falcipain-2 using Z-Leu-Arg-AMC as substrate compound treated for 30 min before substrate addition by fluorescence assay
T1 sequence (Q9N6S8 whole entry): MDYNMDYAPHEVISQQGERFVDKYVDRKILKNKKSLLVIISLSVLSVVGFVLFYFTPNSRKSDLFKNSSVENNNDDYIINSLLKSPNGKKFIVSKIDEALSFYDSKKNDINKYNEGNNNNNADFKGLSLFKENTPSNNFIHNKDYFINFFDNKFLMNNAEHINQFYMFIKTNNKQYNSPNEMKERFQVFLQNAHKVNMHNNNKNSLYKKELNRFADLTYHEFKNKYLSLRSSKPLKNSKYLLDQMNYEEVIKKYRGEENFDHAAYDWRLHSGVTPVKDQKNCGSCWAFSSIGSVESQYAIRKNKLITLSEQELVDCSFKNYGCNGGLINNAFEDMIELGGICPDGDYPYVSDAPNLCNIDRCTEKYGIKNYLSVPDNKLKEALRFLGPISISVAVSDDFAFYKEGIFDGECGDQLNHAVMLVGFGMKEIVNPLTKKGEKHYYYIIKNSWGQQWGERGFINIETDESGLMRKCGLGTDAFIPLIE

Vero [3] = experiment: (§1) Cytotoxicity against Chlorocebus aethiops (African green monkey) Vero cells by Neutral Red assay; assay type: cell-based; conditions: chlorocebus sabaeus, vero
Leishmania donovani = experiment: Antileishmanial activity against Leishmania donovani promastigotes after 72 hr by alamar blue assay; assay type: functional, organism-based
[4] = as §1; assay type: cell-based; conditions: chlorocebus sabaeus, Vero cells; read-out: TD50 (the source's name)
Plasmodium falciparum [5] = experiment: Antimalarial activity against Plasmodium falciparum W2 […] after 72 hr by LDH assay; assay type: functional
Plasmodium falciparum [6] = experiment: Antimalarial activity against Plasmodium falciparum D6 at EC50 after 72 hr by LDH assay; assay type: functional; set-up: concentration or dose not given beside the values
Vero [7] = experiment: Cytotoxicity against Chlorocebus aethiops (African green monkey) Vero cells at TD50 by Neutral Red assay; assay type: cell-based; conditions: chlorocebus sabaeus

SMILES: CCN(CC)CCCC(C)Nc1ccnc2cc(Cl)ccc12 (stereo not drawn) [CHLOROQUINE]
pEC50 (Plasmodium falciparum [1]): 6.44
pEC50 (Plasmodium falciparum [2]): 7.23

SMILES: O=CCCc1sc(CCC(=O)CSCCCc2ccccc2)nc1CCc1ccccc1
inhibition (INH) (Plasmodium falciparum [5]): 26%
inhibition (INH) (Plasmodium falciparum [6]): 45%
pIC50 (Falcipain-3): < 4.30
pIC50 (Falcipain 2): 4.41
TD50 (Vero [3]): Non-toxic
pEC50 (Leishmania donovani): 5.09
pEC50 (Plasmodium falciparum [1]): < 4.29
pEC50 (Plasmodium falciparum [2]): < 4.29

SMILES: Nc1nc(CCc2ccccc2)c(CCCO)s1
inhibition (INH) (Plasmodium falciparum [5]): 26%
inhibition (INH) (Plasmodium falciparum [6]): 37%
TD50 (Vero [3]): Non-toxic
pEC50 (Leishmania donovani): < 3.82
pEC50 (Plasmodium falciparum [1]): < 4.04
pEC50 (Plasmodium falciparum [2]): < 4.04

SMILES: NC(=O)CCc1sc(NC(=O)CSCCCc2ccccc2)nc1/C=C/c1ccccc1
inhibition (INH) (Plasmodium falciparum [5]): 26%
inhibition (INH) (Plasmodium falciparum [6]): 45%
pIC50 (Falcipain-3): 4.26
pIC50 (Falcipain 2): 4.82
TD50 (Vero [3]): Non-toxic
pEC50 (Leishmania donovani): 4.33
pEC50 (Plasmodium falciparum [1]): < 4.29
pEC50 (Plasmodium falciparum [2]): < 4.29

SMILES: C[C@@H]1[C@H](O)[C@@H](C)/C=C/C=C/C=C/C=C/C=C/C=C/C=C/[C@H](O[C@@H]2O[C@H](C)[C@@H](O)[C@H](N)[C@@H]2O)C[C@@H]2O[C@](O)(C[C@@H](O)C[C@@H](O)[C@H](O)CC[C@@H](O)C[C@@H](O)CC(=O)O[C@H]1C)C[C@H](O)[C@H]2C(=O)O [AMPHOTERICIN B]
pEC50 (Leishmania donovani): 6.70

SMILES: CC(=O)NCCCc1sc(CCC(=O)CSCCCc2ccccc2)nc1CCc1ccccc1
pIC50 (Falcipain-3): < 4.30
pIC50 (Falcipain 2): < 4.48
TD50 (Vero [3]): Non-toxic
pEC50 (Leishmania donovani): 4.41
pEC50 (Plasmodium falciparum [1]): 4.77
pEC50 (Plasmodium falciparum [2]): 4.49

SMILES: N=C(N)c1ccc(OCCCCCOc2ccc(C(=N)N)cc2)cc1 [PENTAMIDINE]
pEC50 (Leishmania donovani): 5.30

SMILES: O=C(CCc1nc(CCc2ccccc2)c(CCCO)s1)CSCCCc1ccccc1
pIC50 (Falcipain-3): < 4.30
pIC50 (Falcipain 2): < 4.90
CC50 [4]: 40.6 µM
pEC50 (Leishmania donovani): 4.79
pEC50 (Plasmodium falciparum [1]): 4.72
pEC50 (Plasmodium falciparum [2]): 4.69

SMILES: C[C@@H]1CC[C@H]2[C@@H](C)C(=O)O[C@@H]3O[C@@]4(C)CC[C@@H]1[C@]32OO4 [ARTEMISININ]
pEC50 (Plasmodium falciparum [1]): 7.64
pEC50 (Plasmodium falciparum [2]): 7.60

Now from value to compound, other results behind:

pIC50 (Falcipain-3): < 4.30
pIC50 (Falcipain 2): < 4.48
pEC50 (Plasmodium falciparum [1]): 4.60
pEC50 (Plasmodium falciparum [2]): 4.52
SMILES: CC(=O)OCc1nc(CCC(=O)CSCCCc2ccccc2)sc1CCc1ccccc1
TD50 (Vero [3]): Non-toxic
pEC50 (Leishmania donovani): 4.54

pIC50 (Falcipain-3): 4.53
pIC50 (Falcipain 2): > 5.18
pEC50 (Plasmodium falciparum [1]): 4.86
pEC50 (Plasmodium falciparum [2]): 4.45
SMILES: O=C(/C=C/c1nc(CCc2ccccc2)c(CCCO)s1)CSCCCc1ccccc1
CC50 [4]: > 51.1 µM
pEC50 (Leishmania donovani): 5.35

pIC50 (Falcipain-3): < 4.30
pIC50 (Falcipain 2): < 4.90
pEC50 (Plasmodium falciparum [1]): < 4.70
SMILES: O=C(CCc1nc(CO)c(CCc2ccccc2)s1)CSCCCc1ccccc1

pEC50 (Plasmodium falciparum [1]): 4.69
pEC50 (Plasmodium falciparum [2]): 4.55
SMILES: CCOC(=O)CCc1sc(NC(=O)CSCCCc2ccccc2)nc1/C=C/c1ccccc1
TD50 (Vero [3]): Non-toxic
pEC50 (Leishmania donovani): 4.30

pIC50 (Falcipain-3): < 4.30
pIC50 (Falcipain 2): < 4.48
pEC50 (Plasmodium falciparum [1]): < 4.31
pEC50 (Plasmodium falciparum [2]): < 4.31
SMILES: NC(=O)CCc1sc(CCC(=O)CSCCCc2ccccc2)nc1CCc1ccccc1
Activity (Vero [7]): 38%
inhibition (INH) (Plasmodium falciparum [5]): 43%
inhibition (INH) (Plasmodium falciparum [6]): 42%
CC50 [4]: > 49.5 µM
pEC50 (Leishmania donovani): 4.38
